The test system of experiment [1] is CaSki cervical cancer cell line. The experiment can be described thus: MTT assay for cell viability, IC50 determination. It counts as cell-based. On the procedure: (§1) Cells were plated in 96-well plates and treated with varying concentrations of a test compound for 48 hours, after which MTT dye, 3-(4,5-dimethylthiazol-2-yl)-2,5-diphenyltetrazolium bromide (Sigma), was added, and crystals solubilised 4 hours later using Solubilisation Reagent (10% SLS in 0.01 M HCl). Absorbencies were measured at 595 nm the following day using a BioTek microplate spectrophotometer (Winooski, Vt., USA) and IC50 curves were generated using GraphPad Prism.
A general note: Formazan colour is commonly taken as a measure of viable cells.

The subject of experiment [2] is WHCO5 oesophageal cancer cell line. The experiment can be described thus: MTT assay for cell viability, IC50 determination. The following applies: Homo sapiens. The class given is cell-based, human. On the procedure: as §1
Experiment [3] relates to HeLa cervical cancer cell line. The experiment can be described thus: MTT assay for cell viability, IC50 determination. It counts as cell-based. As to conditions: for IC50: Homo sapiens, HeLa. On the procedure:
as §1

For experiment [4], the system named is KYSE180 oesophageal cancer cell line. As to the kind of experiment: MTT assay for cell viability, IC50 determination. It counts as cell-based. As to conditions: Homo sapiens, KYSE-180, 48 hours. On the procedure: as §1
Experiment [5] deals with NFAT transcriptional activity in NFAT-transfected HeLa cells. As to the kind of experiment: NFAT luciferase reporter assay. The class given is cell-based. As to conditions: stimulated with TPA and ionomycin (FIGS. 16-20). As for the experimental part: To assay for NFAT luciferase activity, 30 000 HeLa cells were plated per well in 24-well plates, and transfected with 50 ng GFP-NFAT plasmid (Addgene plasmid #24219, gift of Jerry Crabtree (Beals C R, Clipstone N A, Ho S N, Crabtree G R. Nuclear localization of NF-ATc by a calcineurin-dependent, cyclosporin-sensitive intramolecular interaction. Genes Dev 1997 Apr. 1; 11(7):824-34)), 50 ng NFAT-luciferase (Addgene plasmid #10959, gift of Toren Finkel (Ichida M, Finkel T. Ras regulates NFAT3 activity in cardiac myocytes. J Biol Chem 2001 Feb. 2; 276(5):3524-30)), and 5 ng pRL-TK, using 0.4 μl Genecellin™ Transfection Reagent (Celtic Molecular Diagnostics, South Africa). The NFAT-luciferase reporter plasmid contains three tandem repeats of a 30 bp fragment of the IL-2 promoter known to bind NFAT. The following day cells were treated with 10 or 15 μM Compound A and after an overnight incubation, stimulated with 100 nM TPA (Sigma) and 1.3 μM Ionomycin (Santa Cruz Biotechnology, Santa Cruz, Calif., USA) for 5 hours, following which luciferase activity was measured.
An assay for nuclear NFAT following ionomycin and Compound A treatment was carried out, using an NFAT-luciferase reporter that is activated by nuclear NFAT. The phorbol ester TPA was used to co-stimulate NFAT, as it has been shown previously that TPA and ionomycin elicit synergistic stimulation of NFAT luciferase activity (Northrop J P, Ullman K S, Crabtree G R. Characterization of the nuclear and cytoplasmic components of the lymphoid-specific nuclear factor of activated T cells (NF-AT) complex. J Biol Chem 1993 Feb. 5; 268(4):2917-23).
A general note: A reporter such as luciferase makes a cellular process visible.

The nature of experiment [6]: MTT assay for cell viability, IC50 determination. It counts as cell-based. As to conditions: Homo sapiens, MCF-12A, MCF12A. On the procedure:
as §1

Experiment [7] relates to DMB normal skin fibroblasts (non-cancer). As to the kind of experiment: MTT assay for cell viability, IC50 determination. The class given is cell-based. As to conditions: Skin fibroblast. On the procedure:
as §1

The subject of experiment [8] is KYSE150 oesophageal cancer cell line. As to the kind of experiment: MTT assay for cell viability, IC50 determination. It counts as cell-based. The following applies: Homo sapiens, KYSE-150. On the procedure:
as §1

The test system of experiment [9] is MCF7 breast cancer cell line. As to the kind of experiment: MTT assay for cell viability, IC50 determination. The class given is cell-based. As to conditions: Homo sapiens. As for the experimental part: as §1
In experiment [10] the test system is MDA-MB-231 breast cancer cell line. As to the kind of experiment: MTT assay for cell viability, IC50 determination. The following applies: Homo sapiens. The class given is cell-based. As for the experimental part: as §1
Experiment [11] relates to SVWI38 transformed cell line. As to the kind of experiment: MTT assay for cell viability, IC50 determination. The class given is cell-based. On the procedure: as §1
Experiment [12] has as its system WI38 non-cancer cell line. As to the kind of experiment: MTT assay for cell viability, IC50 determination. The following applies: Homo sapiens, WI-38. The class given is cell-based. As for the experimental part: as §1
Experiment [13] deals with cancer cell lines. As to the kind of experiment: MTT cell viability, summary statements over panels of cancer cell lines. It counts as cell-based. The following applies: CaSki, HeLa, WHCO5, KYSE150, MCF12A, MCF7, MDA-MB-231, SVW138 (Table 4); read-out: IC50 values. As for the experimental part:
as §1

[14] abbreviates: Homo sapiens, Ca-Ski, 48 h, MTT, read-out: IC50.
The mark [15] stands for this setting: 48 h, 48 hours, MTT, read-out: IC50.

Where two headings read alike, the source gives them in different places.

As for `COc1ccc(C)cc1NC(=O)[C@@H](NCc1nc2ccccc2n1C)c1ccccc1` [VI, (2S)-N-(2-methoxy-5-methyl-phenyl)-2-[(1-methylbenzimidazol-2-yl)methylamino]-2-phenyl-acetamide], in experiment [1] (setting [14]), the IC50 is 19.1 µM.

Consider `CCN(CC)CCCn1c(N)c(-c2nc3ccccc3[nH]2)c2nc3ccccc3nc21` [Compound B], for which the IC50 in experiment [2] (48 h, MTT) stood at 5.7 µM; in experiment [1] (setting [14]), 5.59 µM; in [3] (setting [15]), 6.36 µM; in [4] it was 6.03 µM.

With `CN1CCc2cc(CNC3CCN(c4ccc(C(=O)NC5CCCC5)cc4)CC3)ccc21` [XVI, N-cyclopentyl-4-[4-[(1-methylindolin-5-yl)methylamino]-1-piperidyl]benzamide], the IC50 in experiment [1] (setting [14]) stood at 46.8 µM.

With Ivermectin [reference compound], in experiment [5], the “NFAT activation (NFAT-luciferase reporter)” value is on record as “significantly diminished”.

With `c1ccc2[nH]cnc2c1` [Benzimidazole, benzimidazole, reference compound], the IC50 in experiment [3] (HeLa cells (FIG. 3B), read-out: IC50 concentration (cell-killing effect)) came to 2080 µM.

For `CC(C)CCn1c(N)c(-c2nc3ccccc3[nH]2)c2nc3ccccc3nc21` [Compound G], the IC50 in [2] (48 h, MTT) was found to be 6.14 µM; in [1] (setting [14]), 6.17 µM; in experiment [3] (setting [15]) it was 6.38 µM; in [4], 5.51 µM.

For `Nc1c(-c2nc3ccccc3[nH]2)c2nc3ccccc3nc2n1CCCn1ccnc1` [Compound C], the IC50 in [2] (48 h, MTT) came out at 8.32 µM; in experiment [1] (setting [14]), 9.49 µM; in [3] (setting [15]) it was 7.19 µM; in [4] it was 8.46 µM.

On to `OCCCNCc1cc2cc3c(cc2nc1N1CCN(c2cccc(Cl)c2)CC1)OCO3` [XV, 3-[[6-[4-(3-chlorophenyl)piperazin-1-yl]-[1,3]dioxolo[4,5-g]quinolin-7-yl]methylamino]propan-1-ol], for which, in experiment [1] (setting [14]), the IC50 was 37.7 µM.

Turning to `CCOC(=O)c1cc2c(=O)n3cc(C)ccc3nc2[n+](CCCN2CCOCC2)c1N` [V, ethyl 2-imino-8-methyl-1-[3-(4-morpholinyl)propyl]-5-oxo-1,5-dihydro-2H-dipyrido[1,2-a:2′,3′-d]pyrimidine-3-carboxylate], the IC50 in [1] (setting [14]) is 16.4 µM.

With `CCn1c(N)c(-c2nc3ccccc3[nH]2)c2nc3ccccc3nc21` [Compound K], the IC50 in experiment [2] (48 h, MTT) came to 6.79 µM; in [1] (setting [14]) it was 6.62 µM; in experiment [3] (setting [15]) it was 4.16 µM; in experiment [4], 7.23 µM.

As for `CCCn1c(N)c(-c2nc3ccccc3n2C)c2nc3ccccc3nc21` [Compound J], the IC50 amounted to 11.8 µM in experiment [2] (48 h, MTT); 38.4 µM in [1] (setting [14]); 22.2 µM in [3] (setting [15]); 33.1 µM in experiment [4].

On to `Cc1ccc2c(c1)c1c(n2C[C@@H](O)CNC[C@@H]2CCCO2)CCCC1` [XIV, (2S)-1-(6-methyl-1,2,3,4-tetrahydrocarbazol-9-yl)-3-[[(2S)-tetrahydrofuran-2-yl]methylamino]propan-2-ol], for which the IC50 in [1] (setting [14]) stood at 31.7 µM.

For the molecule `COc1cc2ncnc(Nc3cccc(Cl)c3)c2cc1OC` [AG 1478, reference compound], in [5], the “NFAT activation (NFAT-luciferase reporter)” value was “no change”.

`CCCCn1c(N)c(-c2nc3ccccc3[nH]2)c2nc3ccccc3nc21` [Compound E]: the IC50 is 5.94 µM in experiment [2] (48 h, MTT); 14.3 µM in [1] (setting [14]); 8.29 µM in experiment [3] (setting [15]); 8.79 µM in [4].

As for `Cc1ccc(OC[C@@H](O)CN2CCN(CCO)CC2)cc1C` [VII, (2S)-1-(3,4-dimethylphenoxy)-3-[4-(2-hydroxyethyl)piperazin-1-yl]propan-2-ol], in experiment [1] (setting [14]), the IC50 was 22.2 µM.

For the molecule `Cn1c(-c2c(N)n(CCCN3CCOCC3)c3nc4ccccc4nc23)nc2ccccc21` [Compound I], the IC50 in experiment [2] (48 h, MTT) is 19.6 µM; in experiment [1] (48 hours, MTT), “Does not converge”; in experiment [3] (setting [15]) it was 15.4 µM; in [4] it was 22 µM.

`Cc1ccc2cc(CNCCCN3C[C@@H]4C=C[C@H]3C4)c(N3CCC(O)CC3)nc2c1` (stereo in doubt) [VIII, 1-[3-[[3-[(1S,4R)-5-azabicyclo[2.2.1]hept-2-en-5-yl]propylamino]methyl]-7-methyl-2-quinolyl]piperidin4-ol]: the IC50 in [1] (setting [14]) is 24.4 µM.

As to `c1ccc2nccnc2c1` [quinoxaline, reference compound], the cell-killing effect entry in experiment [3] (HeLa cells, concentration range of up to 6.5 mM (FIG. 3A)) is “No cell-killing effect was observed”.

For the molecule `Cc1csc2nc(CNCc3cc4cc5c(cc4n(CCN4CCCCC4)c3=O)CCC5)cn12` [Compound XI, 3-[[(3-methylimidazo[2,1-b]thiazol-6-yl)methylamino]methyl]-1-[2-(1-piperidyl)ethyl]-7,8-dihydro-6H-cyclopenta[g]quinolin-2-one], the IC50 is 17 µM in experiment [2] (compound in salt form); 61.8 µM in experiment [6] (compound in salt form); 26.9 µM in [1] (setting [14]); 26.9 µM in [1] (Homo sapiens, Ca-Ski, compound in salt form, read-out: IC50); 31.2 µM in experiment [7] (DMB, compound in salt form); 33.1 µM in experiment [3] (compound in salt form, read-out: IC50). The IC50 in [8] (Kyse150, compound in salt form) came to 40.1 µM; in experiment [9] (compound in salt form), 95 µM; in experiment [10] (compound in salt form), 32.7 µM; in experiment [11] (SVWI38, compound in salt form) it was 41.1 µM; in experiment [12] (WI38, compound in salt form), 35 µM.

As to `CCCn1c(N)c(-c2nc3ccccc3[nH]2)c2nc3ccccc3nc21` [Compound D], the IC50 in [2] (48 h, MTT) came out at 12.2 µM; in [1] (setting [14]), 12.2 µM; in experiment [3] (setting [15]) it was 8.38 µM; in [4] it was 14.8 µM.

Take `Clc1ccccc1COc1nc2cc3c(cc2cc1CNCc1cn2c(n1)SCC2)CCC3` [Compound IV, ({2-[(2-chlorophenyl)methoxy]-6H,7H,8H-cyclopenta[g]quinolin-3-yl}methyl)({2H,3H-imidazo[2,1-b][1,3]thiazol-6-ylmethyl})amine]: the IC50 in experiment [2] (48 h, MTT) amounted to 17.9 µM; in experiment [6] (48 hours, MTT), 11.4 µM; in experiment [1] (setting [14]), 8.69 µM; in experiment [7] (DMB non-cancer, 48 hours, MTT), 8.27 µM; in [3] (setting [15]), 8.62 µM; in experiment [8] (KYSE150, 48 hours, MTT) it was 11.2 µM. For the same molecule, the IC50 in experiment [9] (48 hours, MTT) is 14 µM; in [10] (48 hours, MTT), 8.01 µM; in experiment [11] (SVWI38 transformed, 48 hours, MTT), 12.9 µM; in experiment [12] (WI38 non-cancer, 48 hours, MTT) it was 25.1 µM; in [13] it was 8 to 18 µM.

Regarding `CC(C)Cn1c(N)c(-c2nc3ccccc3[nH]2)c2nc3ccccc3nc21` [Compound F], the IC50 turned out to be 6.59 µM in experiment [2] (48 h, MTT); 7.55 µM in experiment [1] (setting [14]); 6.77 µM in [3] (setting [15]); 5.35 µM in experiment [4].

For `Nc1c(-c2nc3ccccc3[nH]2)c2nc3ccccc3nc2n1CCCO` [Compound H], the IC50 stood at 6.3 µM in [2] (48 h, MTT); 10 µM in experiment [1] (setting [14]); 4.04 µM in [3] (setting [15]); 1.18 µM in [4].

The values are drawn from patent US10220033B2, “Substituted benzoxazepine for cancer therapy” (University of Cape Town, priority 2014, dated 2019).
